Measurements: patent US11214803B2, “Modulators of YAP1 expression” (Ionis Pharmaceuticals, Inc., priority 2019, dated 2022)
Strand notation (5' to 3'): a small letter for the sugar, then the base; units joined by * are phosphorothioate-linked, units joined directly phosphodiester-linked; [ ] holds rarer units or linkages, { } end groups; capitals alone tell only the bases. k = constrained ethyl (cEt); [5mC] = 5-methylcytosine; d = 2'-deoxy (DNA)

Test system: Yap1 mRNA
Experiment: Antisense inhibition of human Yap1 in A-431 cells by cEt gapmers, single dose (Example 2, RTS4814)
Type: cell-based
Details: A-431 cells, 5,000 cells per well, free uptake, 2,000 nM modified oligonucleotide, approx. 48 hours, RTS4814, normalized to RIBOGREEN; Table 4; asterisk (*) = targets amplicon region of primer probe set
In short: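 Single-dose knockdown screen of 3-10-3 cEt phosphorothioate gapmers at 2,000 nM added by free uptake to A-431 cells. After roughly 48 h, RNA was isolated and Yap1 transcript measured by RT-qPCR, with results given as % UTC.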

Row | Substance | YAP1 (% UTC)
1 | 716427 (kA*kG*k[5mC]*d[5mC]*d[5mC]*d[5mC]*d[5mC]*dA*dA*dA*dA*dT*dG*kA*kA*k[5mC]; antisense) [Compound 716427] | 86

Same assay, conditions: Table 5; A-431 cells, 5,000 cells per well, free uptake, 2,000 nM modified oligonucleotide, approx. 48 hours; RTS4814; normalized to RIBOGREEN; Yap1 mRNA relative to untreated control cells

Row | Substance | YAP1 (% UTC)
2 | 716467 (k[5mC]*k[5mC]*kG*dT*dA*dT*dG*d[5mC]*d[5mC]*d[5mC]*dA*dG*dA*kG*kG*kG; antisense) [Compound 716467] | 99
3 | 716401 (kA*kA*k[5mC]*dT*dG*dG*d[5mC]*dT*dA*d[5mC]*dG*d[5mC]*dA*kG*kG*kG; antisense) [Compound 716401] | 92
4 | 716356 (k[5mC]*kG*kA*dG*dG*dT*dG*dG*dA*dG*dA*dA*dG*k[5mC]*kG*kG; antisense) [Compound 716356] | 112
5 | 716395 (kG*k[5mC]*k[5mC]*dG*d[5mC]*dA*dG*d[5mC]*d[5mC]*dT*d[5mC]*dT*d[5mC]*k[5mC]*kT*kT; antisense) [Compound 716395] | 92
6 | 716359 (k[5mC]*k[5mC]*k[5mC]*d[5mC]*dT*dG*dA*d[5mC]*d[5mC]*d[5mC]*dA*dG*dG*k[5mC]*kG*kA; antisense) [Compound 716359] | 101

Same assay, conditions: Table 6; A-431 cells, 5,000 cells per well, free uptake, 2,000 nM modified oligonucleotide, approx. 48 hours; RTS4814; normalized to RIBOGREEN; Yap1 mRNA relative to untreated control cells

Row | Substance | YAP1 (% UTC)
7 | 716477 (kG*kT*kG*dT*dT*d[5mC]*dA*dT*dT*dA*d[5mC]*dA*dA*kA*kT*kG; antisense) [Compound 716477] | 42
8 | 716372 (kA*kT*kG*dA*dG*d[5mC]*dT*d[5mC]*dG*dA*dA*d[5mC]*dA*kT*kG*k[5mC]; antisense) [Compound 716372] | 61
9 | 716546 (k[5mC]*kA*k[5mC]*dA*dA*dT*dT*dA*dA*dT*dT*dA*d[5mC]*kT*kG*kT; antisense) [Compound 716546] | 103
10 | 716513 (antisense kA*kA*kT*d[5mC]*dT*dT*dA*dA*dT*d[5mC]*dT*dG*dT*kG*kG*k[5mC]) [Compound 716513] | 30
11 | 716432 (kT*k[5mC]*kT*dG*dA*dG*dT*dA*dT*dT*dT*dA*dG*kT*kT*kA; antisense) [Compound 716432] | 30
12 | 716552 (kT*kT*kT*d[5mC]*dT*d[5mC]*dA*dG*dA*dT*dG*dT*dA*k[5mC]*k[5mC]*kA; antisense) [Compound 716552] | 53

Same assay, conditions: Table 7 (gapmers targeting SEQ ID NO: 3 and 4); A-431 cells, free uptake, 2,000 nM, approximately 48 hours, RTS4814

Row | Substance | YAP1 (% UTC)
13 | 716571 (kG*k[5mC]*kT*dG*dA*dA*dG*d[5mC]*d[5mC]*dG*dA*dG*dT*kT*k[5mC]*kA) [Compound 716571] | 91

Same assay, conditions: Table 19; A-431 cells, 5,000 cells per well, free uptake, 2,000 nM modified oligonucleotide, approx. 48 hours; RTS4814; normalized to RIBOGREEN; Yap1 mRNA as percent of untreated control

Row | Substance | YAP1 (% UTC)
14 | 1076197 (kT*kA*kT*dT*dA*dT*d[5mC]*dA*dA*dG*dG*dG*dA*kA*kT*kT; antisense) [Compound 1076197] | 94
15 | 1076549 (antisense kG*kT*kG*d[5mC]*dA*dA*dA*dA*dT*dA*d[5mC]*d[5mC]*dT*kT*kT*kG) [Compound 1076549] | 8
16 | 1076357 (kT*k[5mC]*k[5mC]*dA*dA*dA*dA*dA*d[5mC]*dT*dT*d[5mC]*dT*kT*kA*kG; antisense) [Compound 1076357] | 22
17 | 1075173 (antisense k[5mC]*kT*kT*dT*dA*dG*dG*dG*d[5mC]*dA*dA*d[5mC]*dT*kG*kT*kA) [Compound 1075173] | 22

Same assay, conditions: Table 20; Yap1 mRNA, percent of untreated control; 3-10-3 cEt gapmers targeting SEQ ID NO.: 1 and 2

Row | Substance | YAP1 (% UTC)
18 | 1076262 (kA*kG*kA*d[5mC]*dA*dA*dT*dA*dG*dT*d[5mC]*dT*dG*kG*kG*k[5mC]; antisense) [Compound 1076262] | 41
19 | 1076422 (kG*kA*kA*dT*dT*dA*dT*dG*dA*d[5mC]*d[5mC]*dT*d[5mC]*k[5mC]*kA*kT; antisense) [Compound 1076422] | 13

Same assay, conditions: Table 21; Yap1 mRNA, percent of untreated control; 3-10-3 cEt gapmers targeting SEQ ID NO.: 1 and 2

Row | Substance | YAP1 (% UTC)
20 | 1075527 (kA*kT*kT*dT*dA*dA*dT*dT*dA*dA*dG*dG*dG*k[5mC]*k[5mC]*k[5mC]; antisense) [Compound 1075527] | 82
21 | 1075879 (kG*kA*kA*dT*dA*dA*dA*dG*dA*dA*dG*dT*d[5mC]*kA*k[5mC]*k[5mC]; antisense) [Compound 1075879] | 77
22 | 1076231 (kT*kT*kA*dG*dA*dA*dA*dT*dG*dG*dA*d[5mC]*dT*kG*kG*kG; antisense) [Compound 1076231] | 16

Same assay, conditions: Table 22; Yap1 mRNA as percent of untreated control; 3-10-3 cEt gapmers; single dose

Row | Substance | YAP1 (% UTC)
23 | 1076232 (kG*kT*kA*dA*dT*dA*d[5mC]*dA*d[5mC]*d[5mC]*dA*dT*dT*kT*kG*kG; antisense) [Compound 1076232] | 15

Same assay, conditions: Table 23; Yap1 mRNA as percent of untreated control; 3-10-3 cEt gapmers; single dose

Row | Substance | YAP1 (% UTC)
24 | 1074505 (kA*kA*kT*d[5mC]*dG*dA*dG*dA*dT*dT*dT*dA*dA*kA*kT*kA; antisense) [Compound 1074505] | 83
25 | 1074537 (antisense k[5mC]*kA*kG*dT*dA*dA*dT*dA*dG*d[5mC]*dT*d[5mC]*dT*kT*kT*k[5mC]) [Compound 1074537] | 3

Same assay, conditions: Table 24; Yap1 mRNA as percent of untreated control; 3-10-3 cEt gapmers targeting SEQ ID NO.: 1, and 2

Row | Substance | YAP1 (% UTC)
26 | 1074122 (antisense k[5mC]*kT*kG*d[5mC]*dG*dA*dG*dG*d[5mC]*dA*d[5mC]*dT*d[5mC]*kG*kG*kA) [Compound 1074122] | 73
27 | 1074730 (antisense kT*kA*kT*d[5mC]*dA*d[5mC]*dA*dG*dT*dA*d[5mC]*dT*dG*k[5mC]*kT*kA) [Compound 1074730] | 46
28 | 1074954 (antisense k[5mC]*k[5mC]*kG*dG*dG*dT*dT*dT*dT*dT*dG*dT*d[5mC]*kA*kT*k[5mC]) [Compound 1074954] | 91

Same assay, conditions: Table 25; Yap1 mRNA as percent of untreated control; 3-10-3 cEt gapmers targeting SEQ ID NO.: 1, and 2

Row | Substance | YAP1 (% UTC)
29 | 1074731 (antisense k[5mC]*kA*kG*dG*dT*dA*dT*d[5mC]*dA*d[5mC]*dA*dG*dT*kA*k[5mC]*kT) [Compound 1074731] | 19
30 | 1075531 (k[5mC]*kT*kT*dA*dA*dT*dA*dG*dT*dT*dT*dA*dA*k[5mC]*k[5mC]*kT; antisense) [Compound 1075531] | 66

Same assay, conditions: Table 32; Yap1 mRNA, percent of untreated control; 3-10-3 cEt gapmers targeting SEQ ID NO.: 1, and 2

Row | Substance | YAP1 (% UTC)
31 | 1075218 (k[5mC]*kT*kT*dA*dA*d[5mC]*dA*d[5mC]*dT*dG*dG*dT*dA*kA*kG*kA; antisense) [compound 1075218] | 97
32 | 1075442 (antisense kT*kA*kT*dT*dA*dG*dT*dT*d[5mC]*dT*dA*d[5mC]*dG*kA*kT*kT) [compound 1075442] | 71
33 | 1075506 (k[5mC]*kA*kT*dA*dA*dA*dG*dG*dT*dG*dA*d[5mC]*dA*kG*k[5mC]*k[5mC]; antisense) [compound 1075506] | 66

Same assay, conditions: Table 33; Yap1 mRNA, percent of untreated control; 3-10-3 cEt gapmers targeting SEQ ID NO.: 1, and 2

Row | Substance | YAP1 (% UTC)
34 | 1076499 (kG*k[5mC]*kT*dA*dA*dT*dA*dT*dA*dT*d[5mC]*d[5mC]*dA*kA*kT*kT; antisense) [compound 1076499] | 37
35 | 1075603 (antisense kT*kA*kT*dG*dA*dA*d[5mC]*dA*dA*dG*dT*dA*dT*kG*kA*kG) [compound 1075603] | 35
36 | 1076275 (kG*kT*kA*dT*dT*dA*dG*dA*dT*dA*dA*dA*dG*k[5mC]*kA*kG; antisense) [compound 1076275] | 10
37 | 1074227 (antisense kA*k[5mC]*kT*dG*dT*d[5mC]*dG*dA*dA*dG*dA*dT*dG*k[5mC]*kT*kG) [compound 1074227] | 10

Same assay, conditions: Yap1 mRNA as percent of untreated control; A-431 cells; 3-10-3 cEt gapmers targeting SEQ ID NO.: 1, and 2; Table 30

Row | Substance | YAP1 (% UTC)
38 | 1075376 (antisense k[5mC]*k[5mC]*kT*dA*dA*dA*dT*dA*dT*d[5mC]*dA*dA*d[5mC]*kT*k[5mC]*k[5mC]) [compound 1075376] | 72
39 | 1076432 (k[5mC]*kA*kT*dT*dA*dG*dT*dA*dT*dT*d[5mC]*dA*d[5mC]*kT*kG*kT; antisense) [compound 1076432] | 18
40 | 1076400 (antisense kG*kT*kT*dA*dA*dA*dA*dG*d[5mC]*d[5mC]*dG*dT*dG*kA*kA*kA) [compound 1076400] | 10
41 | 1076528 (kT*kT*kA*dT*dA*dA*dT*dG*dG*dG*dA*dG*dG*kA*kT*kT; antisense) [compound 1076528] | 86

Same assay, conditions: Yap1 mRNA as percent of untreated control; A-431 cells; 3-10-3 cEt gapmers targeting SEQ ID NO.: 1, and 2; Table 31

Row | Substance | YAP1 (% UTC)
42 | 1075057 (antisense k[5mC]*k[5mC]*kT*dT*dA*dG*dG*dA*dG*dT*dA*dG*dA*k[5mC]*kT*kG) [compound 1075057] | 14
43 | 1075281 (antisense k[5mC]*kA*kG*d[5mC]*dA*dA*dA*dA*dG*dT*dA*d[5mC]*d[5mC]*kA*kT*kG) [compound 1075281] | 36
44 | 1076113 (kT*kG*kA*d[5mC]*dA*dA*dT*dA*dG*d[5mC]*d[5mC]*dA*dA*kT*kG*k[5mC]; antisense) [compound 1076113] | 16
45 | 1074321 (antisense kG*kG*kG*d[5mC]*dT*dA*dA*d[5mC]*dT*d[5mC]*d[5mC]*dT*dG*kA*k[5mC]*kA) [compound 1074321] | 73
46 | 1075761 (kG*kG*kA*dG*dA*dA*dA*dA*dA*d[5mC]*dT*dA*d[5mC]*kG*kG*kA; antisense) [compound 1075761] | 13
